Assays:
Assay type in all cases: biochemical
inducible human NOS = biological target: T1, inducible human NOS (Homo sapiens, UniProt P35228); assay: Inhibition of inducible human NOS (citrulline formation), enzyme from cytokine-induced DLD-1 cells; settings: NOS from cytokine-induced DLD-1 cells; 1 μM L-[14C] arginine; pH 7.4; 10 μM FAD, no calmodulin/CaCl2
T1 construct: Purification of NOS cytokine-induced human colorectal adenocarcinoma DLD-1 cells; host or cells: DLD-1 cells induced with interferon-gamma, interleukin-6, tumor necrosis factor and interleukin-1beta; 2',5' ADP Sepharose purified
Experimental: (§1) NOS was assayed for the formation of citrulline following the procedure of Schmidt et al (PNAS 88 365-369, 1991) with these modifications: 20 mM Hepes, pH 7.4, 10 μg/ml calmodulin, 2.5 mM CaCl2 2.5 mM DTT, 125 μM NADPH 10 μM H4 Biopterin, 0.5 mg/ml BSA, and 1 μM L-[^14 C] arginine (New England Nuclear). Linearity of NOS-catalyzed rate was confirmed prior to kinetic studies that used single time point determination of rate.
Purification of NOS cytokine-induced human colorectal adenocarcinoma DLD-1 cells.
DLD-1 (ATCC No. CCL 221) were grown at 37° C., 5% CO2 in RPMI 1640 medium supplemented with L- glutamin, penicillin, streptomycin, and 10% heat-inactivated fetal bovine serum. Cells were grown to confluency and then the following cocktail of cytokines were added: 100 units/ml interferon-gamma, 200 units/ml interleukin-6, 10 ng/ml tumor necrosis factor, and 0.5 ng/ml interieukin-1β. At 10-24 hr post-induction, cells were harvested by scraping and washed with phosphate-buffered saline. Pelleted cells were stored at -70° C. Purification of the induced NOS was performed at 4° C. Crude extract was prepared by three cycles of freeze/thawing cells in TDGB (20 mM tris pH 7.5, 10% glycerol, 1 mM DTT, 2 μM tetrahydrobiopterin). Extract was applied directly onto a column of 2',5' ADP sepharse (Pharmacia). Resin was sequentially washed with TDGB, 0.5 M NaCl in TDGB, TDGB. NOS was eluted with 2 mM NADPH in TDGB. BSA was immediately added to give a final concentration of 1 mg/ml. NOS could be quick frozen and stored at -70° C. without loss in activity for at least 2 months.
Assay for inducible human NOs.
The formation of citrulline was assayed as described above except that 10 μM FAD was included and calmodulin and CaCl2 were excluded from the assay mix.

human placental NOS = biological target: T2, human placental NOS (Homo sapiens, UniProt P29474); assay: Inhibition of human placental NOS (citrulline formation); settings: 1 μM L-[14C] arginine; pH 7.4; calmodulin, CaCl2
T2 construct: Purification of NOS from human placenta; from tissue; host or cells: fresh human placenta, amnion and chorion removed; ammonium sulfate and 2',5' ADP agarose purified
Experimental: It is noted that the NO synthase isolated from human placenta most probably represents the endothelial constitutive isoenzyme.
Purification of NOS from human placenta.
Amion and chorion were removed from fresh placenta, which was then rinsed with 0.9% NaCl. The tissue was homogenized in a Waring blender in 3 volumes of HEDS buffer (20 mM Hepes pH 7.8, 0.1 mM EDTA, 5 mM DTT, 0.2M sucrose) plus 0.1 mM PMSF.
The homogenate was filtered through cheesecloth and then centrifuged at 1000 g for 20 min. The supernatant was recentrifuged at 27500 g for 30 min. Solid ammonium sulfate was added to the supernatant to give 32% saturation. Precipitated protein was pelleted at 25,000 g and then redissolved in a minimal volume of HEDS buffer plus 0.1 mM PMSF, 10 μg/ml leupeptin and soybean trypsin inhibitor, and 1 μg/ml pepstatin. The redissolved pellet was centrigued at 15000 g for 10 min. To the supernatant was added 1/20 volume of 2',5' ADP agarose resin (Sigma), and the slurry was mixed slowly overnight. In morning, slurry was packed into a column. The resin was sequentially washed with HEDS, 0.5M NaCl in HEDS, HEDS, and then NOS was eluted with 10 mM NADPH in HEDS. The enzyme could be concentrated by ultrafiltration and quick frozen and stored at -70° C. without loss in activity for at least 6 months.
Assay for human placental NOS
as §1

human brain NOS = biological target: T3, human brain NOS (Homo sapiens, UniProt P29475); assay: Inhibition of human brain NOS (citrulline formation); settings: Schmidt et al. 1991 procedure, 10 μM tetrahydrobiopterin included
T3 construct: Purification of NOS from human brain; from tissue; host or cells: frozen human brain; ammonium sulfate, 2',5' ADP-agarose, calmodulin-agarose
Experimental: Purification of NOS from human brain
Human brain NOS was prepared using variations of the procedures of Schmidt et al. (PNAS 88 365-369, 1991), Mayer et al. (Fed. Eur. Biochem. Soc. 288 187-191, 1991), and Bredt and Snyder, (PNAS 87 682-685, 1990). Briefly, frozen human brain (1050 gm) was homogenized in cold buffer A (50 mM HEPES, pH 7.5 (pH at RT) and 0.5 mM EDTA, 10 mM DTT, 3.6 L total volume) with a polytron. The mixture was centrifuged at 13,000 g for 1 hour and the supernatant was removed (about 2050 ml). To the supernatant, solid aimmonium sulfate (365 gm, about 30% of saturation) was added and stirred slowly for a total of 30 minutes. The precipitate was pelleted at 13,000 g for 30 minutes and the pellet was resuspended in ~400 mls of buffer A with 4 μM tetrahydrobiopterin, 1 μM FAD (Sigma), 1 μM FMN (Sigma). The solution was centrifuged at 41,000 g for 60 minutes. The supernatant was removed, frozen by pouring into liquid nitrogen, and stored overnight at -70° C. The mixture was thawed and passed through a 2',5' ADP-agarose column (0.4 g swelled in buffer A) at 4 ml/min. The column was washed with 100 ml buffer A, 200 ml buffer A with 500 mM NaCl, 100 ml Buffer A, then 30 ml buffer A with 5 mM NADPH. To the enzyme eluted from the column was added glycerol to 15%, CaCl2 to 1 mM, tetrahydrobiopterin to 10 μM, tween to 0.1% and FAD, FMN to 1 μM each. The enzyme was then passed through a 1 ml calmodulin-agarose column which had been equilibrated in Buffer A, 15% glycerol and 1 mM CaCl2. The column was washed with 15 ml Buffer A, 15% glycerol and 1 mM CaCl2, 15 ml of Buffer A, 15% glycerol and 5 mM EDTA, and then enzyme activity was eluted with 3 ml of Buffer A, 15% glycerol and 5 mM EDTA, 1 M NaCl. To the enzyme was added tetrahydrobiopterin to 10 μM, FAD and FMN to 1 μM, and tween to 0.1%. This solution was concentrated by centriprep-30 to a volume of approximately 500 μl. Human NOS was prepared completely analogously except the calmodulin-agarose column was not used. Enzyme activity was determined as described by Schmidt et al. 1991, except that 10 μM tetrahydrobiopterin was included in the assay.

Compound | Ki (inducible human NOS) [µM] | Ki (human placental NOS) [µM] | Ki (human brain NOS) [µM]
NC(=NC1CC1)Nc1ccccc1CC(N)C(=O)O (racemic) [Compound 11, 2-(N'-cyclopropylguanidino)-DL-phenylalanine] | ≤ 1 | ≤ 0.5 | ≤ 1
N=C(N)Nc1cccc(CC(N)C(=O)O)c1 (racemic) [Compound 12, 3-guanidino-DL-phenylalanine] | > 50 | ≤ 50 | ≤ 50
N=C(NCc1ccc(CC(N)C(=O)O)s1)NC1CC1 (racemic) [Compound 21, 3-(5-(N'-cyclopropylguanidino)methyl)-2-thienyl)-DL-alanine] | > 50 | > 50 | > 50
N=C(Nc1ccc(CC(N)C(=O)O)s1)NC1CC1 (racemic) [Compound 5, 3-(5-N'-cyclopropylguanidino-2-thienyl)-DL-alanine] | > 50 | ≤ 10 | ≤ 10
CC(=N)Nc1ccc(CC(N)C(=O)O)s1 (racemic) [Compound 18, 3-(5-(1-iminoethyl)amino)-2-thienyl)-DL-alanine] | ≤ 10 | ≤ 50 | ≤ 50
CNC(=N)NCc1ccc(CC(N)C(=O)O)s1 (racemic) [Compound 20, 3-(5-(N'-methylguanidino)methyl)-2-thienyl)-DL-alanine] | > 50 | > 50 | > 50
CCSC(=N)NCc1ccc(C(N)C(=O)O)s1 (racemic) [Compound 25] | ≤ 10 | ≤ 50 | ≤ 10
CC(=N)Nc1ccccc1CC(N)C(=O)O (racemic) [Compound 19, 2-((1-iminoethyl)amino)-DL-phenylalanine] | ≤ 10 | ≤ 10 | 
CCSC(=N)Nc1ccccc1CC(N)C(=O)O (racemic) [Compound 9, 2-(S-ethylisothioureido)-DL-phenylalanine] | ≤ 1 | ≤ 0.5 | ≤ 0.5
CNC(=N)Nc1ccc(CC(N)C(=O)O)s1 (racemic) [Compound 1, 3-(5-N'-methylguanidino-2-thienyl)-DL-alanine] | > 50 | ≤ 10 | ≤ 50
4-Acetamido-DL-phenylalanine [Compound 15] | > 50 | > 50 | > 50
N=C(N)Nc1ccc(CC(N)C(=O)O)cc1 (racemic) [Compound 13, 4-Guanidino-DL-phenylalanine] | > 50 | > 50 | > 50
NC(=S)Nc1ccccc1CC(N)C(=O)O (racemic) [Compound 7, 2-thioureido-DL-phenylalanine] | ≤ 10 | ≤ 10 | ≤ 10
CSC(=N)Nc1ccccc1CC(N)C(=O)O (racemic) [Compound 8, 2-(S-methylisothioureido)-DL-phenylalanine] | ≤ 10 | ≤ 1 | ≤ 1
CNC(=N)Nc1ccc(CC(N)C(=O)O)cc1 (racemic) [Compound 17, 4-N-methylguanidino-DL-phenylalanine] | > 50 | ≤ 50 | ≤ 50
C=CCNC(=N)Nc1ccc(CC(N)C(=O)O)s1 (racemic) [Compound 6, 3-(5-N'-allylguanidino-2-thienyl)-DL-alanine] | ≤ 10 | ≤ 10 | ≤ 10
CC(=N)Nc1cccc(CC(N)C(=O)O)c1 (racemic) [Compound 14, 3-acetamidino-DL-phenylalanine] | > 50 | > 50 | > 50
CSC(=N)NCc1ccc(CC(N)C(=O)O)s1 (racemic) [Compound 22, 3-(5-((S-methylisothioureido)methyl)-2-thienyl-DL-alanine] | > 50 | > 50 | > 50
NC(=S)Nc1ccc(C[C@H](N)C(=O)O)cc1 [Compound 28, 4-thioureido-L-phenylalanine] | > 50 | > 50 | > 50
CCSC(=N)NCc1ccc(CC(N)C(=O)O)s1 (racemic) [Compound 23, 3-(5-((S-ethylisothioureido)methyl)-2-thienyl)-DL-alanine] | ≤ 10 | ≤ 10 | ≤ 10
CCSC(=N)Nc1cccc(CC(N)C(=O)O)c1 (racemic) [Compound 27, 3-(S-ethylisothioureido)-DL-phenylalanine] | ≤ 10 | ≤ 10 | ≤ 1
C/N=C(/N)Nc1ccccc1CC(N)C(=O)O (racemic) [Compound 10, 2-(N'-methylguanidino)-DL-phenylalanine] | ≤ 1 | ≤ 0.5 | ≤ 0.5
NC(N)=Nc1ccccc1CC(N)C(=O)O (racemic) [Compound 3, 2-Guanidino-DL-phenylalanine] | ≤ 10 | ≤ 0.5 | ≤ 0.5
CNC(N)=Nc1cccc(CC(N)C(=O)O)c1 (racemic) [Compound 16, 3-N-methylguanidino-DL-phenylalanine] | > 50 | ≤ 10 | ≤ 10
CSC(=N)Nc1ccc(C[C@H](N)C(=O)O)cc1 [Compound 29, 4-(S-methylisothioureido)-L-phenylalanine] | > 50 | > 50 | > 50
CCSC(=N)Nc1ccc(CC(N)C(=O)O)s1 (racemic) [Compound 4, 3-(5-S-ethylisothioureido-2-thienyl)-DL-alanine] | > 50 | ≤ 10 | ≤ 50
CCSC(=N)Nc1ccc(C[C@H](N)C(=O)O)cc1 [Compound 30, 4-(S-ethylisothioureido)-L-phenylalanine] | ≤ 10 | ≤ 0.5 | ≤ 0.5
